Laboratory results as given in ChEMBL document CHEMBL5038635, “Discovery of Salidroside-Derivated Glycoside Analogues as Novel Angiogenesis Agents to Treat Diabetic Hind Limb Ischemia” (J Med Chem, 2022).
In brackets after ≈: the same amount, converted by molar mass. Activity calls are given as the source filed them. No cut-off for these calls is given here.

Experiments:
C2C12 [1] = experiment: Angiogenic activity in mouse C2C12 cells assessed as reversal of hyperglycemia-induced reduction in total cell number at 30 uM measured after 24 hrs by EdU-incorporation assay; type: functional, cell-based
C2C12 [2] = experiment: Angiogenic activity in mouse C2C12 cells assessed as accumulation PDGF-BB protein expression at 300 uM by Western blot analysis; type: functional, cell-based
[3] = Permeability coefficient across basolateral to apical side in human Caco-2 cells by HPLC-UV analysis
C2C12 [4] = experiment: Angiogenic activity in mouse C2C12 cells assessed as reversal of hyperglycemia-induced reduction in total cell number at 15 uM measured after 36 hrs by EdU-incorporation assay; type: functional, cell-based
[5] = Dissociation constant, pKa of compound by UV-visible spectrometric method; type: physicochemical
C2C12 [6] = experiment: Apoptotic rate in hyperglycemia-treated mouse C2C12 cells assessed as early apoptotic cells at 30 uM by AnnexinV-FITC/PI staining based flow cytometric analysis (reference value: 7.10 %); type: functional
C2C12 [7] = experiment: Angiogenic activity in mouse C2C12 cells assessed as reversal of hyperglycemia-induced reduction in total cell number at 7.5 uM measured after 36 hrs by EdU-incorporation assay; type: functional, cell-based
[8] = Octanol/Water partition coefficient, log P of the compound by HPLC-UV analysis
C2C12 [9] = experiment: Apoptotic rate in hyperglycemia-treated mouse C2C12 cells assessed as late apoptotic cells at 30 uM by AnnexinV-FITC/PI staining based flow cytometric analysis (reference value: 10.44 %); type: functional
[10] = Efflux ratio of Apparent permeability across basolateral to apical side over apical to basolateral side in human Caco-2 cells
[11] = molecular target: Hypoxia-inducible factor 1-alpha (Mus musculus) (UniProt Q61221); experiment: Inhibition of HIF-1alpha in mouse C2C12 cells transfected with PDGF-B driven firefly luciferase gene assessed as transcriptional activity pretreated with compound for 12 hr followed by hypoxic condition for 24 hrs by dual luciferase reporter gene assay; type: cell-based; details: time 36.0 hrs
C2C12 [12] = experiment: Induction of proliferation of hyperglycemia-induced mouse C2C12 cell death assessed as increase in number of EdU-positive cells at 7.5 to 300 uM pretreated with compound under hyperglycemia condition for 12 hr followed by hypoxia for 24 hrs; type: functional, cell-based; details: dose 7.5-300 µM, time 36.0 hrs
C2C12 [13] = experiment: Apoptotic rate in hyperglycemia-treated mouse C2C12 cells assessed as viable cells at 15 uM by AnnexinV-FITC/PI staining based flow cytometric analysis (reference value: 81.90 %); type: functional; details: read-out: Activity
C2C12 [14] = experiment: Apoptotic rate in hyperglycemia-treated mouse C2C12 cells assessed as viable cells at 30 uM by AnnexinV-FITC/PI staining based flow cytometric analysis (reference value: 81.90 %); type: functional; details: read-out: Activity
C2C12 [15] = experiment: Angiogenic activity in mouse C2C12 cells assessed as reversal of hyperglycemia-induced reduction in total cell number at 300 uM measured after 36 hrs by EdU-incorporation assay; type: functional, cell-based
[16] = Permeability coefficient across apical to basolateral side in human Caco-2 cells by HPLC-UV analysis
C2C12 [17] = experiment: Induction of proliferation of hyperglycemia-induced mouse C2C12 cell apoptosis assessed as decrease in Annexin V/PI-positive cells at 30 uM pretreated with compound under hyperglycemia condition for 12 hr followed by hypoxia for 24 hrs; type: functional, cell-based; details: time 36.0 hrs
C2C12 [18] = experiment: Angiogenic activity in mouse C2C12 cells assessed as accumulation HIF-1alpha protein expression at 300 uM by Western blot analysis; type: functional, cell-based
[19] = Water solubility of the compound by HPLC analysis
[20] = molecular target: Hypoxia-inducible factor 1-alpha (Mus musculus) (UniProt Q61221); experiment: Inhibition of HIF-1alpha in mouse C2C12 cells transfected with HRE-driven firefly luciferase gene assessed as fold change in transcriptional activity at 300 uM pretreated with compound for 12 hr followed by hypoxic condition for 24 hrs by dual luciferase reporter gene assay; type: cell-based; details: time 36.0 hrs
C2C12 [21] = experiment: Apoptotic rate in hyperglycemia-treated mouse C2C12 cells assessed as late apoptotic cells at 15 uM by AnnexinV-FITC/PI staining based flow cytometric analysis (reference value: 10.44 %); type: functional
C2C12 [22] = experiment: Angiogenic activity in mouse C2C12 cells assessed as reversal of hyperglycemia-induced reduction in total cell number at 100 uM measured after 36 hrs by EdU-incorporation assay; type: functional, cell-based
C2C12 [23] = experiment: Apoptotic rate in hyperglycemia-treated mouse C2C12 cells assessed as necrotic cells at 30 uM by AnnexinV-FITC/PI staining based flow cytometric analysis (reference value: 0.56 %); type: functional
C2C12 [24] = experiment: Induction of proliferation of hyperglycemia-induced mouse C2C12 cell apoptosis assessed as decrease in Annexin V/PI-positive cells at 15 uM pretreated with compound under hyperglycemia condition for 12 hr followed by hypoxia for 24 hrs; type: functional, cell-based; details: time 36.0 hrs
C2C12 [25] = experiment: Angiogenic activity in mouse C2C12 cells assessed as accumulation ANG1 protein expression at 300 uM by Western blot analysis; type: functional, cell-based
C2C12 [26] = experiment: Apoptotic rate in hyperglycemia-treated mouse C2C12 cells assessed as early apoptotic cells at 15 uM by AnnexinV-FITC/PI staining based flow cytometric analysis (reference value: 7.10 %); type: functional
C2C12 [27] = experiment: Induction of proliferation of hyperglycemia-induced mouse C2C12 cell death assessed as increase in number of EdU-positive cells at 15 uM pretreated with compound under hyperglycemia condition for 12 hr followed by hypoxia for 24 hrs; type: functional, cell-based; details: time 36.0 hrs
C2C12 [28] = experiment: Angiogenic activity in mouse C2C12 cells assessed as accumulation VEGF-A protein expression at 300 uM by Western blot analysis; type: functional, cell-based
C2C12 [29] = experiment: Apoptotic rate in hyperglycemia-treated mouse C2C12 cells assessed as necrotic cells at 15 uM by AnnexinV-FITC/PI staining based flow cytometric analysis (reference value: 0.56 %); type: functional

Hypoxia-inducible factor 1-alpha (Mus musculus), sequence (Q61221 whole entry): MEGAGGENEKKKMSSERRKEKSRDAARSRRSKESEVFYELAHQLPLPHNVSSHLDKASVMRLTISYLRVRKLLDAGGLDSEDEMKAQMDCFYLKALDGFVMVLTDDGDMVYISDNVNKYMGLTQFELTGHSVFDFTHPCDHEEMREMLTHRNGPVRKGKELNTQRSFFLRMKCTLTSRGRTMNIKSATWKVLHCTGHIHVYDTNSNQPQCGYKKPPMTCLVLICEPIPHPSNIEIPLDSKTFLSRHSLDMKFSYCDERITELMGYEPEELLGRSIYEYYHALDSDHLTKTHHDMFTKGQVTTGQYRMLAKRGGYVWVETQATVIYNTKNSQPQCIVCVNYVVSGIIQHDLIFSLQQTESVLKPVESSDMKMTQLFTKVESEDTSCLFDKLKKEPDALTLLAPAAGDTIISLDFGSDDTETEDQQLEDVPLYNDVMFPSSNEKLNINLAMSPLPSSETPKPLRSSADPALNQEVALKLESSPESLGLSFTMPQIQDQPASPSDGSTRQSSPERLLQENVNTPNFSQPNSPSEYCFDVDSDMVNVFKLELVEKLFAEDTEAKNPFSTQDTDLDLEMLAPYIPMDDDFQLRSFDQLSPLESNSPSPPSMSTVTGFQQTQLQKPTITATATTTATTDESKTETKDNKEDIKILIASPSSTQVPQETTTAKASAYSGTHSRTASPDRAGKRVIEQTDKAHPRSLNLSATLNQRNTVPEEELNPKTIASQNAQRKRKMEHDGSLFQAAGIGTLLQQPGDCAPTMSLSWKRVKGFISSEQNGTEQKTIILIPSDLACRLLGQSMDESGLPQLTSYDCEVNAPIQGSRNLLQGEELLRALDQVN

Papp B→A [3]: 17.8 nm/s
pKa [5]: > 14
logP [8]: 1.02
efflux ratio [10]: 1.06
inhibition [11]: Active
Papp A→B [16]: 16.8 nm/s
solubility [19]: 1.32 mg/mL (≈ 3.51 mM)
fold change (FC) [20]: 2.5
SMILES: COc1ccc(Cc2ccc(O[C@@H]3O[C@H](CO)[C@@H](O)[C@H](O)[C@H]3O)cc2)cc1
Activity (C2C12 [1]): Active
inhibition (C2C12 [2]): Active
Activity (C2C12 [4]): Active
Activity (C2C12 [6]): 3.21%
Activity (C2C12 [7]): inactive
Activity (C2C12 [9]): 7.14%
Activity (C2C12 [12]): inactive
viability at 15 µM (C2C12 [13]): 83.5%
viability at 30 µM (C2C12 [14]): 89.2%
Activity (C2C12 [15]): Active
Activity (C2C12 [17]): inactive
inhibition (C2C12 [18]): Active
Activity (C2C12 [21]): 10.59%
Activity (C2C12 [22]): Active
Activity (C2C12 [23]): 0.41%
Activity (C2C12 [24]): inactive
inhibition (C2C12 [25]): Active
Activity (C2C12 [26]): 5.4%
Activity (C2C12 [27]): Active
inhibition (C2C12 [28]): Active
Activity (C2C12 [29]): 0.49%
